# Structures can show the parent of a compound that is named as a salt.
# What was measured:
# [1] = biological target: T1, human recombinant 5-HT2c receptor (Homo sapiens, UniProt P28335); assay: FLIPR fluorescent Ca2+ mobilisation agonist assay in CHO K1 cells (Method 1); type: cell-based; details: for EC50: agonist affinity, FLIPR; for Emax %: efficacy; for Emax % / Emax: percentage of mean maximal response to 10 μM 5-HT; for Emax: CHO-K1, efficacy
# T1 construct: expressed in transfected cells; host or cells: CHO K1 (Chinese hamster ovary), stably transfected
# T1 sequence (P28335 33-458): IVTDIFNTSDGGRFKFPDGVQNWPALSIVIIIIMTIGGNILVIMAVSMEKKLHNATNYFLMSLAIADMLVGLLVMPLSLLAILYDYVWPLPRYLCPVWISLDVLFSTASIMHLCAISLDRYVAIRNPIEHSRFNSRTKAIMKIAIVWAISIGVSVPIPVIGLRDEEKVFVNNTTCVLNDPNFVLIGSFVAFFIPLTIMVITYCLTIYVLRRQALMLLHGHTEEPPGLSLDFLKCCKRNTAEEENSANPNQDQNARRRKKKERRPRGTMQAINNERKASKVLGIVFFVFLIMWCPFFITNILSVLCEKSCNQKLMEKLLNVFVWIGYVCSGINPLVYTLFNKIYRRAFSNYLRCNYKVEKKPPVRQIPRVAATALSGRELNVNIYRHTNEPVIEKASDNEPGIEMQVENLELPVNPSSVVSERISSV
# Procedure: (§1) The compounds of the invention were evaluated for biological activity by measuring the agonist affinity (EC50) and efficacy (Emax) at the human recombinant 5-HT2c receptor expressed in CHO K1 cells, using a fluorescent based Ca^2+ mobilisation assay format compatible with FLIPR technology (Method 1). Additionally, the binding activity of a compound was determined by measuring its affinity for the human recombinant 5-HT2c receptor membranes from Swiss 3T3 cells (Method 2).
# The agonist affinity of the compounds were tested by measuring their ability to induce a fluorescent based Ca^2+ mobilization signal in a FLIPR assay using CHO K1 cells expressing recombinant human 5-HT2C receptor. Both agonist affinity (EC50) and efficacy (Emax) were determined.
# Chinese hamster ovary cells (CHO K1) stably transfected with the 5-HT2c receptor were cultured under standard cell culture techniques. Specifically, cells were grown at 37° C. and 5% CO2 in Dulbecco's Modified Eagle's Medium (DMEM) culture media supplemented with 10% dialysed foetal calf serum (FCS), 1% non-essential amino acids, 1 mM sodium pyruvate, 800 μg/mL geneticin and 50 μg/ml zeocin. Cells were harvested for passaging and storage using trypsin-EDTA, centrifugation and resuspension in culture medium. Cells were grown to 60-80% confluency, harvested and adjusted to 15-20×10^6 cells/ml/vial in medium/10% DMSO and stored long-term at −80° C.
# Cells were seeded into black-walled clear-bottomed 384 well plates 24 h before use. Frozen cells were defrosted in a 37° C. water bath and immediately transferred into 1 mL/vial 37° C. culture medium, diluted to 10 ml and DMSO removed by centrifugation. The cells were resuspended in 15 ml/vial of cell culture medium, counted and adjusted to give 500,000 cells/mL (10,000 cells/well). […] of cell suspension was added to the 384 well plates which were then incubated overnight at 37° C.
# The maximum agonist response was determined with 5-HT at a final assay concentration of 10 μM in the diluent above. The minimum response was determined with Dulbeccos PBS (+CaCl2, +MgCl2) with 0.9% DMSO and 0.05% pluronic F-127. Test compounds, maximum and minimum controls were added to a 384 well polypropylene plate.
# The FLIPR calcium assay reagent was diluted with assay buffer (Hank's Balanced Salt Solution (HBSS))/20 mM HEPES and 2.5 mM probenecid (diluted with 1M Sodium hydroxide and DPBS (+CaCl2, +MgCl2)).
# 20 μl/well FLIPR calcium assay reagent was added to the cell plates, which were incubated for 1 h at 37° C. Cell plates and compound plates were then transferred onto the FLIPR. The assay was run using the appropriate FLIPR program, which initiates the reaction by transferring 15 μL compound into the corresponding, well of the cell plate.
# The statistical parameter exported from each well was the max peak height of the response.
# [2] = biological target: T1, human recombinant 5-HT2c receptor; assay: 3H-meselurgine radioligand binding SPA, membranes from Swiss 3T3 cells (Method 2); details: 3H-meselurgine displacement, Cheng-Prusoff; Swiss 3T3 membranes; read-out: Binding Affinity Ki
# Procedure: as §1
# The compounds were tested for biological activity by their ability to inhibit binding of the radioligand ^3H-meselurgine at the human recombinant 5-HT2C receptor expressed in the Swiss 3T3 cells using a scintillation proximity assay (SPA) technology.
# Swiss 3T3 stably transfected with the 5-HT2C receptor were cultured under standard cell culture techniques. Specifically, cells were grown in 50 mL growth medium (Dulbecco's Modified Eagle's Medium (DMEM) culture media supplemented with 10% dialysed foetal calf serum (FCS), 2 mM penicillin/streptomycin and 20 μg/mL geneticin) in 225 cm^2 flasks at 37° C. and 5% CO2. Cells were grown to 60-80% confluency, harvested using trypsin-EDTA and pelleted by centrifugation for long-term storage at −80° C.
# Cell pellets were thawed on ice and resuspended in 3 mL of membrane preparation buffer (see Media and Buffers for composition) per 1 mL of packed cell. The suspension was homogenised on ice for several 5 s intervals using a hand-held homogeniser. The homogenate was then centrifuged at 1,000 rpm for 5 min at 4° C.
# The supernatants were then collected and retained. Initial cell & nuclei pellets (P1) were subsequently rehomogenised and centrifuged using the conditions cited above, and the supernatants collected and pooled with those retained from the first spin.
# The pooled supernatants were centrifuged at 19,500 rpm for 45 min at 4° C., and the supernatants discarded. The pellets (P2) were then resuspended in 3 mL of membrane preparation buffer per 1 mL of the original packed cell volume. Protein concentrations were subsequently measured and the membrane suspension was finally frozen in aliquots of set volume and stored at −80° C. prior to use in assays.
# For each batch of membrane used, optimal concentrations of Polylysine YSi SPA beads and membrane were determined. The assay free radioligand concentration was expressed as a percentage of the total free radioligand concentration to give an estimate of the radioligand depletion.
# The affinity of ^3H-meselurgine for the human recombinant 5-HT2c receptor was determined for each membrane batch at the selected protein and bead concentrations. […] The mean KD for ^3H-meselurgine at a batch of membranes was determined from data from a minimum of three separate assays.
# The required amount of membrane, was thawed on ice and added to a pre-determined volume of bead suspension in 50 mM HEPES buffer, pH 7.4. The beads were then pre-coupled by incubating the predetermined protein quantity per mg of bead on a roller 4° C. for 1 h. Subsequently, the bead/membrane complex was spun down at 1000 rpm for 5 min. The resulting pellet was resuspended in assay buffer at the specific concentration required for the final assay.
# An aliquot of [^3H]-meselurgine stock was diluted in binding assay buffer to give a pre-determined final assay concentration less than the equilibrium dissociation constant (KD) value.
# All test compounds were prepared at a concentration of 4 mM in 100% dimethyl sulphoxide (DMSO) from dry samples.
# The same volume of assay buffer was added to specific wells of the plate to enable subsequent measurement of total radioligand binding. Furthermore, 5 μL of Mianserin at 25 μM (2.5 μM final assay concentration was subsequently added to pre-determined wells to determine non-specific binding (NSB).
Molecule,EC50 [1],Ki [2],Emax [1],Emax % [1]
"2-[Difluoro(phenyl)methyl]-N-methyl-6,7,8,9-tetrahydro-5H-pyrimido[4,5-d]azepin-4-amine [Example 8]",128 nM,44.5 nM,–,54.30%
"CC1CNCCc2cnc(Cc3ccccc3)nc21 (single isomer, unassigned) [47 (Peak 1), 2-Benzyl-9-methyl-6,7,8,9-tetrahydro-5H-pyrimido[4,5-d]azepine]",453 nM,133 nM,–,96.40%
"CC1CNCCc2cnc(Cc3ccccc3)nc21 (single isomer, unassigned) [47 (Peak 2), 2-Benzyl-9-methyl-6,7,8,9-tetrahydro-5H-pyrimido[4,5-d]azepine]",233 nM,218 nM,76.6%,–
"OC(c1ccccc1)c1ncc2c(n1)CCNCC2 (single isomer, unassigned; stereoisomer 1) [Example 70, Phenyl-(6,7,8,9-tetrahydro-5H-pyrimido[4,5-d]azepin-2-yl)-methanol dihydrochloride (Stereoisomer 1)]",643 nM,978 nM,76%,–
"c1ccc(Cc2nc3c(c(-n4cccn4)n2)CCNCC3)cc1 [Example 1, 2-Benzyl-4-(1H-pyrazol-1-yl)-6,7,8,9-tetrahydro-5H-pyrimido[4,5-d]azepine]",224 nM,72 nM,83.5%,–
"CC(c1ccccc1)c1ncc2c(n1)CCNCC2 (stereo not drawn) [Example 2, 2-(1-Phenylethyl)-6,7,8,9-tetrahydro-5H-pyrimido[4,5-d]azepine]",198 nM,140 nM,84.9%,–
"CC(C)(c1ccccc1)c1ncc2c(n1)CCNCC2 [Example 9, 2-(1-Methyl-1-phenylethyl)-6,7,8,9-tetrahydro-5H-pyrimido[4,5-d]azepine]",732 nM,401 nM,52.6%,–
"CC(C)(c1ccccc1)c1nc2c(c(N3CCOCC3)n1)CCNCC2 [Example 11, 2-(1-Methyl-1-phenylethyl)-4-morpholin-4-yl-6,7,8,9-tetrahydro-5H-pyrimido[4,5-d]azepine]",884 nM,73.5 nM,75.2%,–
"c1ccc(C2(c3nc4c(c(N5CCOCC5)n3)CCNCC4)CC2)cc1 [Example 13, 4-Morpholin-4-yl-2-(1-phenylcyclopropyl)-6,7,8,9-tetrahydro-5H-pyrimido[4,5-d]azepine]",499 nM,2300 nM,64.4%,–
"N-benzyl-N-methyl-6,7,8,9-tetrahydro-5H-pyrimido[4,5-d]azepin-2-amine hydrochloride [Example 49]",182 nM,–,–,71.20%

# Further lines, with some results ahead:
EC50 [1],Ki [2],Emax [1],Molecule,Emax % [1]
326 nM,–,49.9%,"CCN(C)c1nc2c(c(NCC(C)C)n1)CCNCC2 [Example 101, N-2-ethyl-N-4-isobutyl-N-2-methyl-6,7,8,9-tetra-hydro-5H-pyrimido[4,5-d]azepine-2,4-diamine]",–
173 nM,–,74.3%,"CCN(C)c1nc2c(c(NC)n1)CCNCC2 [Example 102, N-2-ethyl-N-2,N-4-dimethyl-6,7,8,9-tetra-hydro-5H-pyrimido[4,5-d]-azepine-2,4-diamine]",–
449 nM,–,32.7%,"CCCNc1nc(N(C)CC2CC2)nc2c1CCNCC2 [Example 103, N-2-(cyclopropylmethyl)-N-2-methyl-N-4-propyl-6,7,8,9-tetrahydro-5H-pyrimido[4,5-d]azepine-2,4-diamine]",–
202 nM,–,64.1%,"CN(Cc1ccccc1)c1nc2c(c(N3CCOCC3)n1)CCNCC2 [Example 105, N-benzyl-N-methyl-4-morpholin-4-yl-6,7,8,9-tetrahydro-5H-pyrimido-[4,5-d]azepin-2-amine]",–
363 nM,–,43.2%,"CN(C)c1nc2c(c(N(C)C)n1)CCNCC2 [Example 107, N,N,N′,N′-tetramethyl-6,7,8,9-tetrahydro-5H-pyrimido[4,5-d]azepine-2,4-diamine]",–
149 nM,–,44.4%,"c1ccc(CNc2nc(N3CCC3)nc3c2CCNCC3)cc1 [Example 108, 2-azetidin-1-yl-N-benzyl-6,7,8,9-tetrahydro-5H-pyrimido[4,5-d]azepin-4-amine]",–
247 nM,–,87.7%,"C1Cc2nc(NC3CC3)nc(N3CCSCC3)c2CCN1 [Example 109, N-cyclopropyl-4-thio-morpholin-4-yl-6,7,8,9-tetrahydro-5H-pyrimido-[4,5-d]azepin-2-amine]",–
604 nM,–,38.8%,"c1ccc(CCNc2nc3c(c(N4CCSCC4)n2)CCNCC3)cc1 [Example 110, N-(2-phenylethyl)-4-thiomorpholin-4-yl-6,7,8,9-tetrahydro-5H-pyrimido[4,5-d]azepin-2-amine]",–
141 nM,–,64.3%,"CCCNc1nc2c(c(N3CCSCC3)n1)CCNCC2 [Example 111, N-propyl-4-thiomorpholin-4-yl-6,7,8,9-tetrahydro-5H-pyrimido[4,5-d]-azepin-2-amine]",–
543 nM,–,42.8%,"CCNc1nc2c(c(N(C)CC3CC3)n1)CCNCC2 [Example 112, N-4-(cyclopropylmethyl)-N-2-ethyl-N-4-methyl-6,7,8,9-tetrahydro-5H-pyrimido[4,5-d]azepine-2,4-diamine]",–
279 nM,–,–,"CN(C)c1nc(N(C)Cc2ccccc2)nc2c1CCNCC2 [Example 113, N-2-benzyl-N-2,N-4,N-4-trimethyl-6,7,8,9-tetra-hydro-5H-pyrimido[4,5-d]azepine-2,4-diamine]",50.8%
